From ChEMBL document CHEMBL1150805, “New cytotoxic isomalabaricane triterpenes from the sponge Jaspis species” (J Nat Prod, 2001)

Key:
[1] = tested on: MOLT-4; experiment: Antiproliferative activity against human MOLT4 cells; type: functional, cell-based
[2] = tested on: Malme-3M; experiment: Antiproliferative activity against human MALME-3M cells; type: functional, cell-based

| IC50 [1] | Structure (SMILES) | IC50 [2] |
| --- | --- | --- |
| 16.6 µg/mL | CC(=O)O[C@@H](CC=C(C)C)/C(C)=C/C=C/C(C)=C1\C(=O)C[C@H]2[C@@]3(C)CC[C@@H](OC(C)=O)[C@](C)(CO)[C@@H]3CC[C@]12C (mixture of isomers) | 1.2 µg/mL |
| 4.11 µg/mL | CC(=O)O[C@@H](CC=C(C)C)/C(C)=C/C=C/C(C)=C1\C(=O)C[C@H]2[C@@]3(C)CC[C@@H](O)[C@](C)(CO)[C@@H]3CC[C@]12C (mixture of isomers) | 0.23 µg/mL |
| 1.62 µg/mL | CC(=O)O[C@H]1CC[C@@]2(C)[C@@H](CC[C@]3(C)/C(=C(C)/C=C/C=C(\C)[C@@H](O)CC=C(C)C)C(=O)C[C@@H]23)[C@@]1(C)CO (mixture of isomers) | 0.11 µg/mL |
| 19.5 µg/mL | CC(=O)O[C@@H](CC=C(C)C)/C(C)=C/C=C/C(C)=C1\C(=O)C[C@H]2[C@@]3(C)CC[C@H](OC(C)=O)[C@](C)(CO)[C@@H]3CC[C@]12C (mixture of isomers) | 2.27 µg/mL |
